Our source for the IC50 values is US20100311714A1, “1H-IMIDAZO[4,5-c]QUINOLINONE COMPOUNDS” (priority 2009, published 2010).

The structures appear in SMILES notation.

Assay [1] deals with PKB Ser473 phosphorylation in Rat1-myr-HA-p110 alpha cells. The assay is described as follows: Reverse protein array, PKB Ser473 phosphorylation in Rat1-myr-HA-p110 alpha cells. The format is cell-based. To be noted: Rattus norvegicus, 0.5 h, 30 minutes compound incubation, read-out: p-PKB/IC50_alpha.
In assay [2] the test system is PKB Ser473 phosphorylation in Rat1-myr-HA-p110 delta cells. As to the kind of experiment: Reverse protein array, PKB Ser473 phosphorylation in Rat1-myr-HA-p110 delta cells. The format is cell-based. To be noted: Rattus norvegicus, 0.5 h, 30 minutes compound incubation, read-out: p-PKB/IC50_delta.

Consider `CNC(=O)c1ccc(-c2ccc3ncc4c(c3c2)n(-c2cccnc2C)c(=O)n4C)cc1` [Example 2.4, N-Methyl-4-[3-methyl-1-(2-methyl-pyridin-3-yl)-2-oxo-2,3-dihydro-1H-imidazo[4,5-c]quinolin-8-yl]-benzamide], for which the IC50 in assay [1] was 0.0146 µM; in assay [2] it was 0.0291 µM.
The corresponding values for `Cc1ncccc1-n1c(=O)n(C)c2cnc3ccc(-c4cnc5[nH]ccc5c4)cc3c21` [Example 2.8, 3-Methyl-1-(2-methyl-pyridin-3-yl)-8-(1H-pyrrolo[2,3-b]pyridin-5-yl)-1,3-dihydro-imidazo[4,5-c]quinolin-2-one] are 0.00684 µM and 0.0138 µM.
The corresponding values for `COCc1ncc(-c2ccc3ncc4c(c3c2)n(-c2cccnc2C)c(=O)n4C)cc1OC` [Example 2.30, 8-(5-Methoxy-6-methoxymethyl-pyridin-3-yl)-3-methyl-1-(2-methyl-pyridin-3-yl)-1,3-dihydro-imidazo[4,5-c]quinolin-2-one] are 0.0522 µM and 0.336 µM.
The corresponding values for `Cn1c(=O)n(-c2cccnc2F)c2c3cc(-c4cnc5[nH]ccc5c4)ccc3ncc21` [Example 6.3, 1-(2-Fluoro-pyridin-3-yl)-3-methyl-8-(1H-pyrrolo[2,3-b]pyridin-5-yl)-1,3-dihydro-imidazo[4,5-c]quinolin-2-one] are 0.0137 µM and 0.0432 µM.
Turning to `Cc1nc(F)ccc1-n1c(=O)n(C)c2cnc3ccc(-c4cncc(N5CCC5)c4)cc3c21` [Example 7.6, 8-(5-Azetidin-1-yl-pyridin-3-yl)-1-(6-fluoro-2-methyl-pyridin-3-yl)-3-methyl-1,3-dihydro-imidazo[4,5-c]quinolin-2-one], the IC50 in assay [1] worked out at 0.0344 µM; in assay [2] it was 0.119 µM.
For the molecule `COCc1ncc(-c2ccc3ncc4c(c3c2)n(-c2ccc(F)nc2C)c(=O)n4C)cc1OC` [Example 7.7, 1-(6-Fluoro-2-methyl-pyridin-3-yl)-8-(5-methoxy-6-methoxymethyl-pyridin-3-yl)-3-methyl-1,3-dihydro-imidazo[4,5-c]quinolin-2-one], the IC50 in assay [1] was found to be 0.0961 µM; in assay [2] it was 0.598 µM.
The corresponding values for `COc1cc(-c2ccc3ncc4c(c3c2)n(-c2ccc(F)nc2C)c(=O)n4C)cnc1CO` [Example 7.10, 1-(6-Fluoro-2-methyl-pyridin-3-yl)-8-(6-hydroxymethyl-5-methoxy-pyridin-3-yl)-3-methyl-1,3-dihydro-imidazo[4,5-c]quinolin-2-one] are 0.123 µM and 0.315 µM.
As to `COc1ccc(-n2c(=O)n(C)c3cnc4ccc(-c5cncc(N6CCC6)c5)cc4c32)c(OC)n1` [Example 8.11, 8-(5-Azetidin-1-yl-pyridin-3-yl)-1-(2,6-dimethoxy-pyridin-3-yl)-3-methyl-1,3-dihydro-imidazo[4,5-c]quinolin-2-one], the IC50 was < 0.00457 µM in assay [1] and 0.0931 µM in assay [2].
The corresponding values for `COc1ccc(-n2c(=O)n(C)c3cnc4ccc(-c5cnc(C(OC)OC)c(OC)c5)cc4c32)c(OC)n1` [Example 8.13, 8-(6-Dimethoxymethyl-5-methoxy-pyridin-3-yl)-1-(2,6-dimethoxy-pyridin-3-yl)-3-methyl-1,3-dihydro-imidazo[4,5-c]quinolin-2-one] are 0.208 µM and 0.599 µM.
The corresponding values for `COc1ccc(-n2c(=O)n(C)c3cnc4ccc(-c5cnc(CO)c(OC)c5)cc4c32)c(OC)n1` [Example 8.14, 1-(2,6-Dimethoxy-pyridin-3-yl)-8-(6-hydroxymethyl-5-methoxy-pyridin-3-yl)-3-methyl-1,3-dihydro-imidazo[4,5-c]quinolin-2-one] are 0.035 µM and 0.186 µM.
The corresponding values for `COc1cc(-c2ccc3ncc4c(c3c2)n(-c2ccc(N3CC(F)(F)C3)nc2C)c(=O)n4C)cnc1CO` [Example 24.4, 1-[6-(3,3-Difluoro-azetidin-1-yl)-2-methyl-pyridin-3-yl]-8-(6-hydroxymethyl-5-methoxy-pyridin-3-yl)-3-methyl-1,3-dihydro-imidazo[4,5-c]quinolin-2-one] are 0.0223 µM and 0.0885 µM.
Regarding `COc1cc(-c2ccc3ncc4c(c3c2)n(-c2ccc(N3CCCC3)nc2C)c(=O)n4C)cnc1CO` [Example 25.4, 8-(6-Hydroxymethyl-5-methoxy-pyridin-3-yl)-3-methyl-1-(2-methyl-6-pyrrolidin-1-yl-pyridin-3-yl)-1,3-dihydro-imidazo[4,5-c]quinolin-2-one], the IC50 in assay [1] was found to be 0.0275 µM; in assay [2], 0.0581 µM.
The corresponding values for `CCNc1cc(-c2ccc3ncc4c(c3c2)n(-c2ccc(N3CCCC3)nc2C)c(=O)n4C)cnc1CO` [Example 25.5, 8-(5-Ethylamino-6-hydroxymethyl-pyridin-3-yl)-3-methyl-1-(2-methyl-6-pyrrolidin-1-yl-pyridin-3-yl)-1,3-dihydro-imidazo[4,5-c]quinolin-2-one] are < 0.00457 µM and 0.0076 µM.
The corresponding values for `CCNc1cc(-c2ccc3ncc4c(c3c2)n(-c2ccc(N(C)CCO)nc2C)c(=O)n4C)cnc1CO` [Example 26.3, 8-(5-Ethylamino-6-hydroxymethyl-pyridin-3-yl)-1-{6-[(2-hydroxy-ethyl)-methyl-amino]-2-methyl-pyridin-3-yl}-3-methyl-1,3-dihydro-imidazo[4,5-c]quinolin-2-one] are < 0.00457 µM and 0.0128 µM.
The corresponding values for `Cc1nc(N2CCC(O)C2)ccc1-n1c(=O)n(C)c2cnc3ccc(-c4cnc(N)c(C(F)(F)F)c4)cc3c21` (centres unmarked) [Example 27.3, 8-(6-Amino-5-trifluoromethyl-pyridin-3-yl)-1-[6-(3-hydroxy-pyrrolidin-1-yl)-2-methyl-pyridin-3-yl]-3-methyl-1,3-dihydro-imidazo[4,5-c]quinolin-2-one] are < 0.00457 µM and 0.0089 µM.
For the molecule `CCOc1ccc(-c2ccc3ncc4c(c3c2)n(-c2ccc(N3CCC(O)C3)nc2C)c(=O)n4C)cn1` (centres unmarked) [Example 27.4, 8-(6-Ethoxy-pyridin-3-yl)-1-[6-(3-hydroxy-pyrrolidin-1-yl)-2-methyl-pyridin-3-yl]-3-methyl-1,3-dihydro-imidazo[4,5-c]quinolin-2-one], the IC50 was < 0.00457 µM in assay [1] and 0.0381 µM in assay [2].
The corresponding values for `Cc1nc(N2CCC(O)C2)ccc1-n1c(=O)n(C)c2cnc3ccc(-c4cncc(C(C)(C)O)c4)cc3c21` (centres unmarked) [Example 27.5, 8-[5-(1-Hydroxy-1-methyl-ethyl)-pyridin-3-yl]-1-[6-(3-hydroxy-pyrrolidin-1-yl)-2-methyl-pyridin-3-yl]-3-methyl-1,3-dihydro-imidazo[4,5-c]quinolin-2-one] are 0.16 µM and 0.309 µM.
The corresponding values for `CNc1ncc(-c2ccc3ncc4c(c3c2)n(-c2ccc(N3CCC(OC)C3)nc2C)c(=O)n4C)cn1` (centres unmarked) [Example 28.2, 1-[6-(3-Methoxy-pyrrolidin-1-yl)-2-methyl-pyridin-3-yl]-3-methyl-8-(2-methylamino-pyrimidin-5-yl)-1,3-dihydro-imidazo[4,5-c]quinolin-2-one] are 0.0091 µM and 0.0229 µM.
The corresponding values for `COc1cc(-c2ccc3ncc4c(c3c2)n(-c2ccc(N3CCC(OC)C3)nc2C)c(=O)n4C)cnc1CO` (centres unmarked) [Example 28.3, 8-(6-Hydroxymethyl-5-methoxy-pyridin-3-yl)-1-[6-(3-methoxy-pyrrolidin-1-yl)-2-methyl-pyridin-3-yl]-3-methyl-1,3-dihydro-imidazo[4,5-c]quinolin-2-one] are 0.0445 µM and 0.121 µM.
In the case of `Cc1nc(N2CC(O)C2)ccc1-n1c(=O)n(C)c2cnc3ccc(-c4cncc(C(C)(C)O)c4)cc3c21` [Example 29.1, 1-[6-(3-Hydroxy-azetidin-1-yl)-2-methyl-pyridin-3-yl]-8-[5-(1-hydroxy-1-methyl-ethyl)-pyridin-3-yl]-3-methyl-1,3-dihydro-imidazo[4,5-c]quinolin-2-one], the IC50 amounted to 0.335 µM in assay [1] and 0.351 µM in assay [2].
The corresponding values for `COc1cc(-c2ccc3ncc4c(c3c2)n(-c2ccc(N)nc2C)c(=O)n4C)cnc1CO` [Example 30.1, 1-(6-Amino-2-methyl-pyridin-3-yl)-8-(6-hydroxymethyl-5-methoxy-pyridin-3-yl)-3-methyl-1,3-dihydro-imidazo[4,5-c]quinolin-2-one] are 0.0536 µM and 0.715 µM.
The corresponding values for `CNc1ncc(-c2ccc3ncc4c(c3c2)n(-c2ccc(N3CC[C@H](O)C3)nc2C)c(=O)n4C)cc1Cl` [Example 32.4, 8-(5-Chloro-6-methylamino-pyridin-3-yl)-1-[6-((S)-3-hydroxy-pyrrolidin-1-yl)-2-methyl-pyridin-3-yl]-3-methyl-1,3-dihydro-imidazo[4,5-c]quinolin-2-one] are 0.008 µM and 0.016 µM.
Take `COc1cc(-c2ccc3ncc4c(c3c2)n(-c2ccc(N3CC[C@H](O)C3)nc2C)c(=O)n4C)cnc1CO` [Example 32.7, 8-(6-Hydroxymethyl-5-methoxy-pyridin-3-yl)-1-[6-((S)-3-hydroxy-pyrrolidin-1-yl)-2-methyl-pyridin-3-yl]-3-methyl-1,3-dihydro-imidazo[4,5-c]quinolin-2-one]: the IC50 was 0.0617 µM in assay [1] and 0.178 µM in assay [2].
The corresponding values for `CNc1ncc(-c2ccc3ncc4c(c3c2)n(-c2ccc(N3CC[C@@H](O)C3)nc2C)c(=O)n4C)cn1` [Example 34.1, 1-[6-((R)-3-Hydroxy-pyrrolidin-1-yl)-2-methyl-pyridin-3-yl]-3-methyl-8-(2-methylamino-pyrimidin-5-yl)-1,3-dihydro-imidazo[4,5-c]quinolin-2-one] are 0.013 µM and 0.042 µM.
For the molecule `CCNc1cc(-c2ccc3ncc4c(c3c2)n(-c2ccc(N3CC(F)(F)C(F)(F)C3)nc2C)c(=O)n4C)cnc1CO` [Example 35.2, 8-(5-Ethylamino-6-hydroxymethyl-pyridin-3-yl)-3-methyl-1-[2-methyl-6-(3,3,4,4-tetrafluoro-pyrrolidin-1-yl)-pyridin-3-yl]-1,3-dihydro-imidazo[4,5-c]quinolin-2-one], the values for the IC50 in assay [1] and in assay [2] were 0.0046 µM and 0.0163 µM, respectively.
